Reference: US7071168B2, “Anti-cancer compounds and methods related thereto” (The Regents of the University of Colorado, priority 1998, dated 2006)

Experiments:
[1] = tested on: SCLC strain SHP-77; assay: Colorimetric tetrazolium (MTT) assay for cell survival, SCLC strain SHP-77; type: cell-based, human; conditions: for ED50 for cytotoxic activity, SCLC SHP-77: Table 5, included for comparison
Procedure, shortened: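 MTT assay: cells seeded overnight, treated in triplicate across a concentration range for 4 days at 37 °C, 5% CO2. On day 5, MTT was added for 4 h; formazan was dissolved in acidified isopropanol and absorbance read.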

[2] = tested on: bradykinin response of isolated guinea pig ileum; assay: Anti-bradykinin activity on isolated guinea pig ileum; conditions: for GPI: pA2 for bradykinin antagonist activity on isolated guinea pig ileum: higher numbers indicate higher potency
Procedure, shortened: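 Terminal ileum segments (25 mm) from overnight-fasted male Hartley guinea pigs, in Krebs' solution gassed with 95% O2/5% CO2 under 1 g tension, equilibrated 1 h. Bradykinin concentration-effect curves constructed without and with test compounds.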

[3] = tested on: SCLC strain SHP-77; assay: Inhibition of tumor growth in vivo in nude mice, SCLC strain SHP-77; conditions: for inhibition of growth in vivo of SCLC strain SHP-77: figure legends, nude mice, i.p. daily; for inhibition of growth of the SCLC line SHP-77: dose of 5 mg/kg/day
Procedure: Representative peptide and non-peptide compounds having high in vitro cytotoxic activity were tested against implanted tumors in vivo. Athymic nude mice were implanted subcutaneously with either single cell suspensions (2 million SCLC cells or 1 million NSCLC cells) or with small fragments (3×3 mm) of tumors minced from previously grown nude mouse heterotransplants. On the seventh day after tumor implantation groups of 5 mice bearing implants were injected intraperitoneally daily with the compounds being tested at 1, 5, or 10 mg/kg/day; control animals were injected with an equal volume of isotonic saline. Tumor size was measured with a caliper three times per week. Tumor volume was calculated by the formula: Volume (cc)=π×(length)×(width)^2/6

[4] = tested on: DU14; assay: Cytotoxicity in vitro (MTT), prostate cancer cell line DU14; type: cell-based, human
Procedure: (§1) In general, Anti-bradykinin activity was determined by the classical guinea pig ileum assay and on Chinese hamster ovary (CHO) cells expressing cloned human bradykinin B2 receptors. Anti-tumor activity was determined on cultured human cancer cell lines using the standard tetrazolium (MTT) assay.
(§2) Cell growth and survival were measured by a rapid colorimetric assay based on the tetrazolium salt MTT (3-(4,5-dimethylthiazol-2-yl)-2,5-diphenyl tetrazolium bromide) (Mosmann, J Immunol. Methods 65: 55–63, 1983, with minor modifications). Briefly, 1,000 normal lung fibroblasts or normal epithelial BEAS-2B cells, 1,000 or 5,000 viable non-SCLC cells or 10,000 viable SCLC cells were plated in 100 μL of growth medium in 96-well flat-bottomed microtiter plates. Cells were incubated overnight to allow recovery. Compounds to be tested were added to the cells in triplicate in a range of concentrations and the cells were incubated at 37° C., 5% CO2, with 100% humidity. Control cells were treated in the same way without antagonists. […] Plates were incubated for 4 days, allowing sufficient time for cell replication and compound-induced cell death to occur. On day 5, 25 μL of a 2 mg/mL solution of MTT (Sigma) dissolved in RMPI-1640was added to each well. The plate was incubated for 4 h at 37° C. The supernate was removed and the blue formazan complex was dissolved by adding 100 μL of 0.02 N HCl in 75% isopropanol to all wells. Absorbance was immediately determined using a scanning multiwell plate reader. B9870 caused 50% cell death at a concentration of 0.15 μM under these conditions.

[5] = tested on: TSU; assay: Cytotoxicity in vitro (MTT), prostate cancer cell line TSU; type: cell-based, human
Procedure: as §1, §2

[6] = tested on: LNCa; assay: Cytotoxicity in vitro (MTT), prostate cancer cell line LNCa; type: cell-based, human
Procedure: as §1, §2

[7] = tested on: PC-3; assay: Cytotoxicity in vitro (MTT), prostate cancer cell line PC-3; type: cell-based, human
Procedure: as §1, §2

[8] = tested on: PPC1; assay: Cytotoxicity in vitro (MTT), prostate cancer cell line PPC1; type: cell-based, human
Procedure: as §1, §2

[9] = molecular target: T1, cloned human bradykinin B2 receptors (Homo sapiens, UniProt P30411); assay: Anti-bradykinin activity on cloned human B2 receptors (CHO cells, Cytosensor microphysiometer); type: cell-based
T1 sequence (P30411 1-391): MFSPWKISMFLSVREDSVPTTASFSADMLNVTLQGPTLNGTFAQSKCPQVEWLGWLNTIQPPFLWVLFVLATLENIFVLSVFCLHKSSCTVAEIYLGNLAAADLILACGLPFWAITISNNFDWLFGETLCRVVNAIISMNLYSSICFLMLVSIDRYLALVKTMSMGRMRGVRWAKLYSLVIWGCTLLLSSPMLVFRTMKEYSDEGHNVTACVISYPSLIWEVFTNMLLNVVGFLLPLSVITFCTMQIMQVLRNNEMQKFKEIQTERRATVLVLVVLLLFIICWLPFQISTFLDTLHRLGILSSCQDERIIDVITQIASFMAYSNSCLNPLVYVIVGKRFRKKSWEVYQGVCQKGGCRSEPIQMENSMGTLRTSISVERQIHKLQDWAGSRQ
Procedure: as §1
Chinese hamster ovary cells containing cloned and expressed human bradykinin B2 receptors were grown in cell cups of the Cytosensor microphysiometer in Ham's F-12 medium supplemented with sodium pyruvate and 10% FBS (Gibco 11765-054). For assay the cells were transferred to Ham's F-12 without bicarbonate or serum (Gibco 21700-075) and placed in the Cytosensor. Concentration-response curves were constructed to bradykinin in the presence or absence of new compounds.

[10] = isolated guinea pig ileum, pD2 of bradykinin is 7.4

Molecule	MTT: ED50 for killing of SCLC strain SHP-77 in vitro ([1]; Table 1, SHP-77, MTT, 4 days)	GPI: pA2 for bradykinin antagonist activity on isolated guinea pig ileum ([2]; Table 1)	inhibition of growth in vivo of SCLC strain SHP-77 [3]	MTT: ED50 for killing of SCLC strain SHP-77 in vitro ([1]; SCLC strain SHP-77 in vitro)	ED50 for cytotoxic activity, SCLC SHP-77 [1]	GPI: pA2 for bradykinin antagonist activity on isolated guinea pig ileum [2, 10]	ED50 for cytotoxic activity, DU14 [4]	ED50 for cytotoxic activity, TSU [5]	ED50 for cytotoxic activity, LNCa [6]	ED50 for cytotoxic activity, PC-3 [7]	ED50 for cytotoxic activity, PPC1 [8]	EC50 ([1]; MTT assay, text of Example XIX, read-out: concentration causing 50% cell death)	inhibition of growth of the SCLC line SHP-77 [3]	HUMAN: pA2 for bradykinin antagonist potency on cloned human B2 receptors ([9]; Table 1, higher numbers indicate higher potency)	pA2 (antagonist) on guinea pig ileum ([2]; text of Example XVII)	pA2 (antagonist) on cloned human B2 receptors ([9]; text of Example XVIII)
DDD-(DArg-F5F-Arg)2 [M822]	25 µM	Mixed	inhibition of growth	–	–	–	–	–	–	–	–	–	–	–	–	–
CC1(C)CC(NC(=O)[C@H](Cc2ccc(OCc3c(Cl)cccc3Cl)cc2)NC(=O)/C=C/c2c(F)c(F)c(F)c(F)c2F)CC(C)(C)N1 [M570, F5c-OC2Y-Atmp]	–	–	inhibition of growth	1.8 µM	1.8 µM	5.6	1.2 µM	2.8 µM	3.0 µM	1.6 µM	3.0 µM	–	–	–	–	–
SUIM-(DArg-Arg-Pro-Hyp-Gly-Igl-Ser-DIgl-Oic-Arg) [B9870-2, reference compound]	0.15 µM	8.4	–	–	0.15 µM	–	0.08 µM	6.5 µM	3.7 µM	3.2 µM	4.3 µM	0.15 µM	marked inhibition of growth	–	–	–
Atmp-Igl-Pac-α-Sbl-Lys-B9430 [M590]	4.5 µM	7.5	–	–	4.5 µM	–	0.01 µM	7.0 µM	7.0 µM	6.3 µM	12 µM	–	–	Inact	–	–
DDD-(Lys-DArg-Arg-Pro-Hyp-Gly-Igl-Ser-DIgl-Oic-Arg)2 [B10054]	0.3 µM	7.1	inhibition of growth	–	–	–	–	–	–	–	–	–	marked inhibition of growth	–	–	–
DDD-(DArg-Igl-Arg-Matp)2 [M638]	–	–	inhibition of growth	0.6 µM	–	Inact	–	–	–	–	–	–	–	–	–	–
DArg-Arg-Pro-Hyp-Gly-Igl-Ser-DIgl-Oic-Arg [B9430, reference compound]	120 µM	8.2	inhibition of growth	–	–	–	–	–	–	–	–	–	–	–	7.9	10.5
